Assay results from patent US20220184008A1, “MODULATORS OF INTRACELLULAR CHLORIDE CONCENTRATION” (FONDAZIONE ISTITUTO ITALIANO DI TECNOLOGIA, priority 2019, published 2022).

Experiments:
[1] = Stability in plasma; assay type: in vitro ADME; conditions: resistance to hydrolysis, read-out: t½ in plasma
Description: (§1) FIG. 3: Assessment of drug-likeness of a selected compound, compound 3.17. a) Chemicophysical properties of bumetanide and compound 3.17 by LC-MS analysis. b) Comparison between urinary volume of WT mice (C57Bl/6N) two hours after treatment with bumetanide (0.2 mg/kg) and compound 3.17 (0.2 mg/kg). c) Assessment of urinary volume of Ts65Dn mouse model of Down syndrome and WT littermates two hours after treatment with compound 3.17 (0.2 mg/kg). Number in parenthesis: number of analyzed animals. Data represents mean±sem, and they are presented as % of the respective vehicle.
(§2) The selected NKCC1 inhibitor compound 3.17 has been evaluated for solubility in aqueous buffers, and stability in plasma and phase I metabolism in vitro (FIG. 3a).

[2] = Phase I metabolism in liver microsomes; assay type: in vitro ADME; conditions: read-out: t½ in liver microsomes
Description: as §1, §2

[3] = tested on: Ts65Dn mice; assay: Cognitive impairment tests in Ts65Dn mice (object location, object recognition, T-maze, fear conditioning); assay type: in vivo; conditions: i.p. 0.2 mg/kg, one week; four cognitive tests
Source text: FIG. 4: In vivo assessment of the efficacy of the selected NKCC1 inhibitor in Ts65Dn mice. (a) Quantification of the discrimination index in mice treated with vehicle (WT, n=14, Ts65Dn, n=10;) or 3.17 (WT, n=14, Ts65Dn, n=11;) ***P<0.001; two-way ANOVA Tukey's post hoc test. (b) Quantification of the discrimination index in mice treated with vehicle (WT, n=14, Ts65Dn, n=10;) or 3.17 (WT, n=14, Ts65Dn, n=11) *P<0.05, **P<0.01 two-way ANOVA Tukey's post hoc test. (c) Quantification of the correct choices in mice treated with vehicle (WT, n=14, Ts65Dn, n=10;) or 3.17 (WT, n=14, Ts65Dn, n=11;) ***P<0.001; two-way ANOVA Tukey's post hoc test. (d) Quantification of the freezing response in mice treated with vehicle (WT, n=14, Ts65Dn, n=10;) or 3.17 (WT, n=14, Ts65Dn, n=11;) *P<0.05, **P<0.01 two-way ANOVA Tukey's post hoc test.
The efficacy of compound 3.17 in rescuing cognitive impairment in four different cognitive tests in Ts65Dn mice (FIG. 4) has been evaluated. Adult Ts65Dn mice and their WT littermates were treated (2 months old) for one week with 3.17 (i.p. 0.2 mg/kg) or its vehicle. For the following three weeks, the animals were tested in four different tasks assessing memory and cognition: a) novel object location task (Deidda, G. et al. Reversing excitatory GABAAR signaling restores synaptic plasticity and memory in a mouse model of Down syndrome. […]

half-life [1]: > 2 h
half-life [2]: > 1 h
Structure (SMILES): CN(C)S(=O)(=O)c1cc(C(=O)O)ccc1NCCCCCCCC(F)(F)F [Compound 3.17, 3-(dimethylsulfamoyl)-4-(8,8,8-trifluorooctylamino) benzoic acid]
cognitive performance of Ts65Dn mice [3]: ameliorated
